Test results reported in patent US8293755B2, “Treatment of statin side effects using uridine derivatives” (Magral Pty Ltd., priority 2001, dated 2012).
Values joined by “and” are separate entries in the source; they are usually repeats but may differ in a detail not shown here. Equal values may be shown once.

Assays:
Type in all cases: in vivo, human
[1] = Pilot clinical study: monitoring of blood serum components
Source text: (§1) The design of the clinical trial involves a blood sample being taken from the patients prior to commencing medication administration and then on four further occasions during the 13 week trial, at around days 13-16, days 26-30, days 35-60 and finally at days 80-90. Patients were also required to submit answers to a questionnaire on approximately a weekly basis to enable patients to be scored for pain using the McGill Pain Questionnaire (Melzack, R., 1975 “The McGill Pain Questionnaire: Major Properties and Scoring Methods”. Pain 1:277-299, the disclosure of which is included herein in its entirety by way of reference) scales for Pain Rating Index (PRI) and Present Pain Intensity (PPI). In the PRI index, which comprises two scores, higher scores indicate increasing levels of pain. In the PPI index present pain is given a score of 0 to 5, where 0 represents no pain and 5 represents excruciating pain. Patients were also scored prior to commencement of the trial medication for fatigue using the Fatigue Impact Scale (Fisk, J. D. et al, 1994, “Measuring the functional impact of fatigue: Initial Validation of the Fatigue Impact Scale”, Clinical Infectious Disease, 18 (Suppl 1):S79-83, the disclosure of which is included herein in its entirety by way of reference). On the first week at the clinic, prior to commencement of the trial medication, details of the patients' statin medication were recorded and daily doses noted.
(§2) After the pre-trial medication blood samples and questionnaires were taken (T0d) patients commenced taking daily doses of 1600 mg of magnesium orotate, administered as 2×400 mg tablets, morning and evening.
Blood samples were taken prior to commencement of trial medication (T0d) and after approximately 14 (T14d), 28 (T28d), 42 (T42d) and 56 (T56d) days to determine individual to baseline levels of uridine (μg/ml) arising from magnesium orotate (MgOr) administration, to thereby monitor patient compliance. Blood samples taken were also used to determine creatine kinase concentration (CK) (units/L), gamma glutaryl transferase (GGT) concentration, aspartate amino transferase (AST) concentration and alanine aminotransferase concentration (ALT) (units/L), as well as serum lipid levels including total cholesterol concentration, high density lipoprotein (HDL-CHOL) concentration, low density lipoprotein (LDL-CHOL) concentration, tryglyceride (TRIG) concentration and levels of other serum components routinely tested for including magnesium ion concentration.

[2] = system: statin induced muscle pain; test: Pilot clinical study: McGill Pain Questionnaire scores (PRI, PPI) in statin patients given magnesium orotate; design: key to PRI—Pain Rating Index: McGill PRI; higher scores = more pain; details: for PPI—Present Pain Intensity: score 0 to 5; for PPI—Present Pain Intensity / PRI—Pain Rating Index: 1600 mg/day magnesium orotate
Source text: (§3) Table 1 outlines data for seventeen patients (numbered #i-#xvii) undergoing statin therapy for treatment of hypercholesterolemia and who had reported suffering from varying levels of muscular pain and fatigue. This study is ongoing but the results below follow the study in relation to these patients for varying periods, from day 0 (T0d) up to a maximum of 56 days (T56d).
as §1, §2
(§4) A preliminary statistical analysis of the results of the PRI, PPI and FIS tests for the patients on the trial as a group are presented in Table 3, below.

statin induced fatigue = test: Pilot clinical study: Fatigue Impact Scale (FIS) in statin patients given magnesium orotate; design: FIS—Fatigue Impact Scale: scale not given here; details: for FIS—Fatigue Impact Scale: 1600 mg/day magnesium orotate
Source text: as §3, §1, §2, §4

[3] = patients within the normal ranges at commencement of the trial
[4] = most patients undergoing the magnesium orotate therapy

magnesium orotate
serum uridine concentration ([1]; all patients on the trial, data not presented): increase
GGT serum concentration ([1]; day 43, only patient significantly outside normal range at commencement, dropped from 96 U/L at day 0): 83 U/L
AST serum concentration ([1]; day 43, same patient, dropped from 56 U/L at commencement): 42 U/L
ALT serum concentration ([1]; day 43, same patient, dropped from 105 U/L at commencement): 74 U/L
alanine amino transferase (ALT) serum concentration [1, 3]: no significant impact
aspartate amino transferase (AST) serum concentration [1, 3]: no significant impact
gamma glutaryl transferase (GGT) serum concentration [1, 3]: no significant impact
serum creatine kinase concentration (CK) [1, 3]: no significant impact
PPI—Present Pain Intensity ([2]; T7d, baseline in T0d): 2 (4×) and 1 (9×) and 0 (3×)
PRI—Pain Rating Index ([2]; T14d): 9 (2×) and 8 and 28 and 16 and 23 and 42 and 4 and 7 and 15 and 37 and 2 and 3 and 0 and 6
PPI—Present Pain Intensity ([2]; T14d): 2 (6×) and 1 (9×)
PRI—Pain Rating Index ([2]; T21d): 9 (2×) and 8 (2×) and 24 and 13 and 15 and 42 and 2 and 35 and 0 and 3 and 12
PPI—Present Pain Intensity ([2]; T21d): 2 (5×) and 1 (7×) and 0
PRI—Pain Rating Index ([2]; T28d): 2 (3×) and 3 (2×) and 11 and 4 and 0
PPI—Present Pain Intensity ([2]; T28d): 1 (4×) and 0 (3×) and 2
PRI—Pain Rating Index ([2]; T35d): 0
PPI—Present Pain Intensity ([2]; T35d): 0
PRI—Pain Rating Index ([2]; T42d): 0
PPI—Present Pain Intensity ([2]; T42d): 0
PRI—Pain Rating Index ([2]; T49d): 0
PPI—Present Pain Intensity ([2]; T49d): 0
PRI—Pain Rating Index ([2]; T56d): 0
PPI—Present Pain Intensity ([2]; T56d): 0
PRI and PPI pain scores [2, 4]: significant improvements
FIS—Fatigue Impact Scale (statin induced fatigue; T7d, baseline in T0d): 0 and 19 and 9 and 23 and 88 and 7 and 24 and 17 and 101 and 5 and 47 and 77 and 44 and 40 and 6 and 21
FIS—Fatigue Impact Scale (statin induced fatigue; T14d): 0 and 38 and 25 and 86 (2×) and 9 (3×) and 32 and 49 and 3 and 48 and 31 and 11 and 21
FIS—Fatigue Impact Scale (statin induced fatigue; T21d): 0 and 19 and 18 and 39 and 92 and 4 and 30 and 8 and 91 and 10 and 67 and 21 and 3
FIS—Fatigue Impact Scale (statin induced fatigue; T28d): 0 and 22 and 51 and 1 and 7 and 77 and 9 and 50
FIS—Fatigue Impact Scale (statin induced fatigue; T35d): 0 and 22
FIS—Fatigue Impact Scale (statin induced fatigue; T42d): 0 and 13
FIS—Fatigue Impact Scale (statin induced fatigue; T49d): 0
FIS—Fatigue Impact Scale (statin induced fatigue; T56d): 0
FIS fatigue score (statin induced fatigue; [4]): significant improvements
